Experimental data: patent publication US20070208003A1, “COMPOUNDS AND METHODS FOR TREATING DYSLIPIDEMIA” (priority 2004, published 2007)

Tested on: transgenic mice that express both human CETP and human apolipoprotein A-1
Test: Assay of plasma lipids in vivo: elevation of HDL cholesterol
Conditions: single oral dose 30 mg/kg; at 8 hr; serum HDL cholesterol relative to control; transgenic mice expressing human CETP and human apolipoprotein A-1
Protocol: Assay of Plasma Lipids In Vivo.
Activity of compounds of this invention in vivo can be determined by the level of elevation of HDL cholesterol relative to control by a given amount of compound in a CETP-containing animal species. A strain of transgenic mice that express both human CETP and human apolipoprotein A-1 (Taconic, Germantown, N.Y.) is used to test compounds of this invention. Test compounds are administered once orally in selected aqueous or oil based vehicles. At various times after dosing, ranging from 4 h to 24 h, blood is obtained. Blood is allowed to clot and serum is obtained by centrifugation. HDL cholesterol levels in the serum is determined by HDL-C plus reagents (Roche/Hitachi, Indianapolis, Ind.) with a clinical chemistry analyzer (Roche/Hitachi, Indianapolis, Ind.). Additional serum lipids can be analyzed by enzymatic methods. Lipids in the VLDL, LDL and HDL fractions are analyzed by enzymatic methods after precipitation or size exclusion chromatography.

For `Cc1nc2c(cc1C(F)(F)F)N(C(=O)OC(C)C)CCCC2N(Cc1cc(C(F)(F)F)cc(C(F)(F)F)c1)c1nnn(C)n1` (racemic) [Example 14], the “% HDL cholesterol increase” value was 91%.
